Measurements: the NIST ThermoML archive (doi:10.1021/acs.jced.6b00536)
“And” between values parts separate entries of the source, which are not always exact repeats. Identical values can stand only once. ± gives the expanded uncertainty stated by the source.

Settings: Gas, Frequency=0.05 MHz, Single path-length method

FC(F)(F)C(F)(F)F [hexafluoroethane]
Settings | speed of sound
250.8 K, 68.9 kPa | 127.66 ± 0.09 m/s
250.8 K, 77.3 kPa | 127.49 ± 0.09 m/s
250.8 K, 95 kPa | 127.13 ± 0.09 m/s
250.8 K, 108.8 kPa | 126.85 ± 0.1 m/s
250.8 K, 128.5 kPa | 126.44 ± 0.1 m/s
250.8 K, 149.2 kPa | 126.04 ± 0.1 m/s
250.8 K, 169.4 kPa | 125.61 ± 0.1 m/s
250.8 K, 177.2 kPa | 125.45 ± 0.1 m/s
250.8 K, 195.4 kPa | 125.08 ± 0.1 m/s
250.8 K, 211.5 kPa | 124.74 ± 0.1 m/s
250.8 K, 225.5 kPa | 124.44 ± 0.1 m/s
256.2 K, 70.4 kPa | 128.95 ± 0.09 m/s
256.2 K, 78.9 kPa | 128.78 ± 0.09 m/s
256.2 K, 97 kPa | 128.43 ± 0.09 m/s
256.2 K, 111.1 kPa | 128.17 ± 0.09 m/s
256.2 K, 131.3 kPa | 127.77 ± 0.1 m/s
256.2 K, 152.5 kPa | 127.38 ± 0.1 m/s
256.2 K, 173.1 kPa | 126.97 ± 0.1 m/s
256.2 K, 181.1 kPa | 126.82 ± 0.1 m/s
256.2 K, 199.7 kPa | 126.45 ± 0.1 m/s
256.2 K, 216.2 kPa | 126.14 ± 0.1 m/s
256.2 K, 230.6 kPa | 125.83 ± 0.1 m/s
261.5 K, 71.8 kPa | 130.24 ± 0.09 m/s
261.5 K, 80.5 kPa | 130.09 ± 0.09 m/s
261.5 K, 99 kPa | 129.73 ± 0.09 m/s
261.5 K, 113.4 kPa | 129.49 ± 0.09 m/s
261.5 K, 134.1 kPa | 129.1 ± 0.09 m/s
261.5 K, 155.7 kPa | 128.71 ± 0.09 m/s
261.5 K, 176.8 kPa | 128.32 ± 0.1 m/s
261.5 K, 185 kPa | 128.19 ± 0.1 m/s
261.5 K, 204 kPa | 127.83 ± 0.1 m/s
261.5 K, 221 kPa | 127.51 ± 0.1 m/s
261.5 K, 235.7 kPa | 127.24 ± 0.1 m/s
266.8 K, 73.3 kPa | 131.5 ± 0.09 m/s
266.8 K, 82.1 kPa | 131.33 ± 0.09 m/s
266.8 K, 101.1 kPa | 131.02 ± 0.09 m/s
266.8 K, 115.7 kPa | 130.77 ± 0.09 m/s
266.8 K, 136.8 kPa | 130.41 ± 0.09 m/s
266.8 K, 158.9 kPa | 130.04 ± 0.09 m/s
266.8 K, 180.5 kPa | 129.65 ± 0.09 m/s
266.8 K, 188.9 kPa | 129.52 ± 0.09 m/s
266.8 K, 208.3 kPa | 129.18 ± 0.1 m/s
266.8 K, 225.6 kPa | 128.87 ± 0.1 m/s
266.8 K, 240.8 kPa | 128.62 ± 0.1 m/s
272.1 K, 74.7 kPa | 132.77 ± 0.09 m/s
272.1 K, 83.7 kPa | 132.62 ± 0.09 m/s
272.1 K, 103.1 kPa | 132.3 ± 0.09 m/s
272.1 K, 118 kPa | 132.05 ± 0.09 m/s
272.1 K, 139.6 kPa | 131.72 ± 0.09 m/s
272.1 K, 162.1 kPa | 131.35 ± 0.09 m/s
272.1 K, 184.3 kPa | 131.01 ± 0.09 m/s
272.1 K, 192.8 kPa | 130.85 ± 0.09 m/s
272.1 K, 212.6 kPa | 130.53 ± 0.09 m/s
272.1 K, 230.5 kPa | 130.23 ± 0.1 m/s
272.1 K, 246.8 kPa | 129.96 ± 0.1 m/s
277.4 K, 76.2 kPa | 134.03 ± 0.09 m/s
277.4 K, 85.4 kPa | 133.89 ± 0.09 m/s
277.4 K, 105.1 kPa | 133.57 ± 0.09 m/s
277.4 K, 120.4 kPa | 133.33 ± 0.09 m/s
277.4 K, 142.3 kPa | 132.99 ± 0.09 m/s
277.4 K, 165.4 kPa | 132.66 ± 0.09 m/s
277.4 K, 188 kPa | 132.3 ± 0.09 m/s
277.4 K, 196.7 kPa | 132.17 ± 0.09 m/s
277.4 K, 216.9 kPa | 131.84 ± 0.09 m/s
277.4 K, 235.2 kPa | 131.58 ± 0.09 m/s
277.4 K, 251.8 kPa | 131.3 ± 0.1 m/s
282.7 K, 77.6 kPa | 135.27 ± 0.09 m/s
282.7 K, 87 kPa | 135.13 ± 0.09 m/s
282.7 K, 107.1 kPa | 134.83 ± 0.09 m/s
282.7 K, 122.7 kPa | 134.61 ± 0.09 m/s
282.7 K, 145.1 kPa | 134.28 ± 0.09 m/s
282.7 K, 168.6 kPa | 133.93 ± 0.09 m/s
282.7 K, 191.6 kPa | 133.6 ± 0.09 m/s
282.7 K, 200.5 kPa | 133.47 ± 0.09 m/s
282.7 K, 221.3 kPa | 133.16 ± 0.09 m/s
282.7 K, 239.9 kPa | 132.89 ± 0.09 m/s
282.7 K, 256.9 kPa | 132.64 ± 0.1 m/s
287.9 K, 79.1 kPa | 136.49 ± 0.09 m/s
287.9 K, 88.6 kPa | 136.37 ± 0.09 m/s
287.9 K, 109.1 kPa | 136.08 ± 0.09 m/s
287.9 K, 125 kPa | 135.85 ± 0.09 m/s
287.9 K, 147.9 kPa | 135.54 ± 0.09 m/s
287.9 K, 171.8 kPa | 135.21 ± 0.09 m/s
287.9 K, 195.4 kPa | 134.9 ± 0.09 m/s
287.9 K, 204.4 kPa | 134.76 ± 0.09 m/s
287.9 K, 225.6 kPa | 134.47 ± 0.09 m/s
287.9 K, 244.5 kPa | 134.2 ± 0.09 m/s
287.9 K, 262 kPa | 133.96 ± 0.09 m/s
293.2 K, 80.5 kPa | 137.71 ± 0.09 m/s
293.2 K, 85.4 kPa | 137.65 ± 0.09 m/s
293.2 K, 90.3 kPa | 137.61 ± 0.09 m/s
293.2 K, 111.1 kPa | 137.3 ± 0.09 m/s and 137.31 ± 0.09 m/s
293.2 K, 127.3 kPa | 137.08 ± 0.09 m/s and 137.09 ± 0.09 m/s
293.2 K, 150.6 kPa | 136.79 ± 0.09 m/s and 136.8 ± 0.09 m/s
293.2 K, 175 kPa | 136.48 ± 0.09 m/s
293.2 K, 175.1 kPa | 136.49 ± 0.09 m/s
293.2 K, 199 kPa | 136.16 ± 0.09 m/s
293.2 K, 203.7 kPa | 136.09 ± 0.09 m/s
293.2 K, 208.3 kPa | 136.06 ± 0.09 m/s
293.2 K, 229.9 kPa | 135.75 ± 0.09 m/s and 135.74 ± 0.09 m/s
293.2 K, 249.1 kPa | 135.49 ± 0.09 m/s
293.2 K, 249.2 kPa | 135.5 ± 0.09 m/s
293.2 K, 265.6 kPa | 135.26 ± 0.09 m/s
293.2 K, 267 kPa | 135.26 ± 0.09 m/s
298.5 K, 82 kPa | 138.94 ± 0.09 m/s
298.5 K, 91.9 kPa | 138.8 ± 0.09 m/s
298.5 K, 113.1 kPa | 138.55 ± 0.09 m/s
298.5 K, 129.7 kPa | 138.33 ± 0.09 m/s
298.5 K, 153.4 kPa | 138.03 ± 0.09 m/s
298.5 K, 178.3 kPa | 137.71 ± 0.09 m/s
298.5 K, 202.8 kPa | 137.42 ± 0.09 m/s
298.5 K, 212.2 kPa | 137.32 ± 0.09 m/s
298.5 K, 234.2 kPa | 137.02 ± 0.09 m/s
298.5 K, 253.9 kPa | 136.77 ± 0.09 m/s
298.5 K, 272 kPa | 136.54 ± 0.09 m/s
303.7 K, 83.4 kPa | 140.14 ± 0.09 m/s
303.7 K, 93.5 kPa | 140.03 ± 0.09 m/s
303.7 K, 115.2 kPa | 139.76 ± 0.09 m/s
303.7 K, 132 kPa | 139.56 ± 0.09 m/s
303.7 K, 156.2 kPa | 139.26 ± 0.09 m/s
303.7 K, 181.5 kPa | 138.98 ± 0.09 m/s
303.7 K, 206.4 kPa | 138.67 ± 0.09 m/s
303.7 K, 216.1 kPa | 138.57 ± 0.09 m/s
303.7 K, 238.5 kPa | 138.3 ± 0.09 m/s
303.7 K, 258.6 kPa | 138.06 ± 0.09 m/s
303.7 K, 277.2 kPa | 137.85 ± 0.09 m/s
308.9 K, 84.9 kPa | 141.33 ± 0.09 m/s
308.9 K, 95.1 kPa | 141.19 ± 0.09 m/s
308.9 K, 117.2 kPa | 140.94 ± 0.09 m/s
308.9 K, 134.2 kPa | 140.73 ± 0.09 m/s
308.9 K, 158.9 kPa | 140.47 ± 0.09 m/s
308.9 K, 184.7 kPa | 140.18 ± 0.09 m/s
308.9 K, 210.1 kPa | 139.9 ± 0.09 m/s
308.9 K, 219.9 kPa | 139.79 ± 0.09 m/s
308.9 K, 242.8 kPa | 139.54 ± 0.09 m/s
308.9 K, 263.3 kPa | 139.32 ± 0.09 m/s
308.9 K, 282.1 kPa | 139.06 ± 0.09 m/s
314.1 K, 86.3 kPa | 142.49 ± 0.09 m/s
314.1 K, 96.8 kPa | 142.38 ± 0.09 m/s
314.1 K, 119.2 kPa | 142.15 ± 0.09 m/s
314.1 K, 136.6 kPa | 141.94 ± 0.09 m/s
314.1 K, 161.6 kPa | 141.69 ± 0.09 m/s
314.1 K, 187.9 kPa | 141.4 ± 0.09 m/s
314.1 K, 213.8 kPa | 141.12 ± 0.09 m/s
314.1 K, 223.7 kPa | 140.99 ± 0.09 m/s
314.1 K, 247.1 kPa | 140.76 ± 0.09 m/s
314.1 K, 267.9 kPa | 140.53 ± 0.09 m/s
314.1 K, 287.2 kPa | 140.33 ± 0.09 m/s
319.3 K, 87.7 kPa | 143.67 ± 0.09 m/s
319.3 K, 98.4 kPa | 143.57 ± 0.09 m/s
319.3 K, 121.2 kPa | 143.32 ± 0.09 m/s
319.3 K, 138.9 kPa | 143.13 ± 0.09 m/s
319.3 K, 164.4 kPa | 142.88 ± 0.09 m/s
319.3 K, 191.2 kPa | 142.61 ± 0.09 m/s
319.3 K, 217.5 kPa | 142.34 ± 0.09 m/s
319.3 K, 227.6 kPa | 142.24 ± 0.09 m/s
319.3 K, 251.3 kPa | 141.97 ± 0.09 m/s
319.3 K, 272.7 kPa | 141.78 ± 0.09 m/s
319.3 K, 292.2 kPa | 141.56 ± 0.09 m/s
324.5 K, 89.2 kPa | 144.83 ± 0.09 m/s
324.5 K, 100 kPa | 144.71 ± 0.09 m/s
324.5 K, 123.2 kPa | 144.49 ± 0.09 m/s
324.5 K, 141.2 kPa | 144.31 ± 0.09 m/s
324.5 K, 167.2 kPa | 144.07 ± 0.09 m/s
324.5 K, 194.4 kPa | 143.8 ± 0.09 m/s
324.5 K, 221.2 kPa | 143.52 ± 0.09 m/s
324.5 K, 231.5 kPa | 143.44 ± 0.09 m/s
324.5 K, 255.7 kPa | 143.2 ± 0.09 m/s
324.5 K, 277.3 kPa | 142.99 ± 0.09 m/s
324.5 K, 297.1 kPa | 142.79 ± 0.09 m/s
